Source: BindingDB's records for doi:10.1016/s0968-0896(98)00004-2 (Sankyo, 1998)

Target: T1, Dimer of Gag-Pol polyprotein [489-587] (Human immunodeficiency virus 1, UniProt P12497)
T1 construct: 489-587
Experiment: Protease Inhibition Assay
Procedure: The inhibitory activities of the compounds toward HIV-1 PR were determined by sodium dodecyl sulfate-polyacrylamide gel electrophoresis (SDS-PAGE) assay. The IC50 values of active compounds were determined using the partially purified protease and the synthetic substrate Ac-Ser-Gln-AsnTyr-Pro-Ile-Val-NH2.

| SMILES | IC50 |
| --- | --- |
| CC(C)(C)NC(=O)[C@@H]1C[C@H](Cl)CN1C(=O)[C@@H](O)[C@H](Cc1ccccc1)NC(=O)c1ccccc1I | 14 nM |
| Cc1cccc(C)c1C(=O)N[C@@H](Cc1ccccc1)[C@H](O)C(=O)N1C[C@@H](Cl)C[C@H]1C(=O)NC(C)(C)C | 3.6 nM |
| CC(C)(C)NC(=O)[C@@H]1C[C@H](Cl)CN1C(=O)[C@@H](O)[C@H](Cc1ccccc1)NC(=O)c1ccccc1N | 39 nM |
| CC(C)(C)NC(=O)[C@@H]1C[C@H](Cl)CN1C(=O)[C@@H](O)[C@H](Cc1ccccc1)NC(=O)c1cccc(O)c1 | 9 nM |
| CC(C)(C)NC(=O)[C@@H]1C[C@H](Cl)CN1C(=O)[C@@H](O)[C@H](Cc1ccccc1)NC(=O)c1ccccc1Cl [2-Chlorobenzoyl-(2S,3S)-AHPBA-4(S)-Cl-Pro-NH-t-Bu] | 11 nM |
| Cc1ccccc1C(=O)N[C@@H](Cc1ccccc1)[C@H](O)C(=O)N1C[C@@H](Cl)C[C@H]1C(=O)NC(C)(C)C [2-Methylbenzoyl-(2S,3S)-AHPBA-4(S)-Cl-Pro-NH-t-Bu] | 5.1 nM |
| CC(C)(C)NC(=O)[C@@H]1C[C@H](Cl)CN1C(=O)[C@@H](O)[C@H](Cc1ccccc1)NC(=O)c1cccc(F)c1 [3-Fluorobenzoyl-(2S,3S)-AHPBA-4(S)-Cl-Pro-NH-t-Bu] | 20 nM |
| CC(C)(C)NC(=O)[C@@H]1C[C@H](Cl)CN1C(=O)[C@@H](O)[C@H](Cc1ccccc1)NC(=O)c1ccc(O)cc1 [4-Hydroxybenzoyl-(2S,3S)-AHPBA-4(S)-Cl-Pro-NH-t-Bu] | 33 nM |
| COc1cccc(C(=O)N[C@@H](Cc2ccccc2)[C@H](O)C(=O)N2C[C@@H](Cl)C[C@H]2C(=O)NC(C)(C)C)c1O [(2-Hydroxy-3-methoxy)benzoyl-(2S,3S) -AHPBA-4(S)-Cl-Pro-NH-t-Bu] | > 1000 nM |
| CO[C@@H]1OCCC[C@@H]1OC(=O)N[C@@H](Cc1ccccc1)[C@H](O)C(=O)N1C[C@@H](Cl)C[C@H]1C(=O)NC(C)(C)C [(2R,3S)-2-methoxyoxan-3-yl N-[(2S,3S)-4-[(2S,4S)-2-(tert-butylcarbamoyl)-4-chloropyrrolidin-1-yl]-3-hydroxy-4-oxo-1-phenylbutan-2-yl]carbamate] | 37 nM |
| CO[C@H]1OCC=C[C@H]1OC(=O)N[C@@H](Cc1ccccc1)[C@H](O)C(=O)N1C[C@@H](Cl)C[C@H]1C(=O)NC(C)(C)C [(2S,3R)-2-methoxy-3,6-dihydro-2H-pyran-3-yl N-[(2S,3S)-4-[(2S,4S)-2-(tert-butylcarbamoyl)-4-chloropyrrolidin-1-yl]-3-hydroxy-4-oxo-1-phenylbutan-2-yl]carbamate] | 35 nM |
| CC(C)(C)NC(=O)[C@@H]1C[C@H](Cl)CN1C(=O)[C@@H](O)[C@H](Cc1ccccc1)NC(=O)c1cccc(O)c1Br [(2S,4S)-1-[(2S,3S)-3-[(2-bromo-3-hydroxyphenyl)formamido]-2-hydroxy-4-phenylbutanoyl]-N-tert-butyl-4-chloropyrrolidine-2-carboxamide] | 1.5 nM |
| CC(C)(C)NC(=O)[C@@H]1C[C@H](Cl)CN1C(=O)[C@@H](O)[C@H](Cc1ccccc1)NC(=O)c1ccccc1Br [(2S,4S)-1-[(2S,3S)-3-[(2-bromophenyl)formamido]-2-hydroxy-4-phenylbutanoyl]-N-tert-butyl-4-chloropyrrolidine-2-carboxamide] | 12 nM |
| Cc1c(N)cccc1C(=O)N[C@@H](Cc1ccccc1)[C@H](O)C(=O)N1C[C@@H](Cl)C[C@H]1C(=O)NC(C)(C)C [(2S,4S)-1-[(2S,3S)-3-[(3-amino-2-methylphenyl)formamido]-2-hydroxy-4-phenylbutanoyl]-N-tert-butyl-4-chloropyrrolidine-2-carboxamide] | 5.4 nM |
| CC(C)(C)NC(=O)[C@@H]1C[C@H](Cl)CN1C(=O)[C@@H](O)[C@H](Cc1ccccc1)NC(=O)c1cccc2ccccc12 [(2S,4S)-N-tert-butyl-4-chloro-1-[(2S,3S)-2-hydroxy-3-(naphthalen-1-ylformamido)-4-phenylbutanoyl]pyrrolidine-2-carboxamide] | 9 nM |
| CC(C)(C)NC(=O)[C@@H]1C[C@H](Cl)CN1C(=O)[C@@H](O)[C@H](Cc1ccccc1)NC(=O)c1ccccc1O [(2S,4S)-N-tert-butyl-4-chloro-1-[(2S,3S)-2-hydroxy-3-[(2-hydroxyphenyl)formamido]-4-phenylbutanoyl]pyrrolidine-2-carboxamide] | > 1000 nM |
| Cc1ccc(O)c(C)c1C(=O)N[C@@H](Cc1ccccc1)[C@H](O)C(=O)N1C[C@@H](Cl)C[C@H]1C(=O)NC(C)(C)C [(2S,4S)-N-tert-butyl-4-chloro-1-[(2S,3S)-2-hydroxy-3-[(3-hydroxy-2,6-dimethylphenyl)formamido]-4-phenylbutanoyl]pyrrolidine-2-carboxamide] | 2.5 nM |

| SMILES | IC50 |
| --- | --- |
| CCCc1c(O)cccc1C(=O)N[C@@H](Cc1ccccc1)[C@H](O)C(=O)N1C[C@@H](Cl)C[C@H]1C(=O)NC(C)(C)C [(2S,4S)-N-tert-butyl-4-chloro-1-[(2S,3S)-2-hydroxy-3-[(3-hydroxy-2-propylphenyl)formamido]-4-phenylbutanoyl]pyrrolidine-2-carboxamide] | 1.6 nM |
| CC(C)(C)NC(=O)[C@@H]1C[C@H](Cl)CN1C(=O)[C@@H](O)[C@H](Cc1ccccc1)NC(=O)c1ccccc1 [(2S,4S)-N-tert-butyl-4-chloro-1-[(2S,3S)-2-hydroxy-4-phenyl-3-(phenylformamido)butanoyl]pyrrolidine-2-carboxamide] | 26 nM |
| CCCc1ccccc1C(=O)N[C@@H](Cc1ccccc1)[C@H](O)C(=O)N1C[C@@H](Cl)C[C@H]1C(=O)NC(C)(C)C [(2S,4S)-N-tert-butyl-4-chloro-1-[(2S,3S)-2-hydroxy-4-phenyl-3-[(2-propylphenyl)formamido]butanoyl]pyrrolidine-2-carboxamide] | 29 nM |
| CCc1c(O)cccc1C(=O)N[C@@H](Cc1ccccc1)[C@H](O)C(=O)N1C[C@@H](Cl)C[C@H]1C(=O)NC(C)(C)C [(2S,4S)-N-tert-butyl-4-chloro-1-[(2S,3S)-3-[(2-ethyl-3-hydroxyphenyl)formamido]-2-hydroxy-4-phenylbutanoyl]pyrrolidine-2-carboxamide] | 0.9 nM |
| Cc1c(F)cccc1C(=O)N[C@@H](Cc1ccccc1)[C@H](O)C(=O)N1C[C@@H](Cl)C[C@H]1C(=O)NC(C)(C)C [(3-Fluoro-2-methyl)benzoyl-(2S,3S)-AHPBA-4(S)-Cl-Pro-NH-t-Bu] | 5.6 nM |
| Cc1c(O)cccc1C(=O)N[C@@H](Cc1ccccc1)[C@H](O)C(=O)N1C[C@@H](Cl)C[C@H]1C(=O)NC(C)(C)C [(3-Hydroxy-2-methylbenzoyl)-(2(S)-hydroxy-3(S)-amino-phenylbutanoyl)-4(S)-Cl-Pro-NH-t-Bu] | 0.8 nM |
| CC(C)(C)NC(=O)[C@@H]1C[C@H](Cl)CN1C(=O)[C@@H](O)[C@H](Cc1ccccc1)NC(=O)O[C@@H]1CO[C@H]2[C@@H]1OC[C@H]2O [(3R,3aR,6R,6aR)-6-hydroxy-hexahydrofuro[3,2-b]furan-3-yl N-[(2S,3S)-4-[(2S,4S)-2-(tert-butylcarbamoyl)-4-chloropyrrolidin-1-yl]-3-hydroxy-4-oxo-1-phenylbutan-2-yl]carbamate] | 25 nM |
| CC(C)(C)NC(=O)[C@@H]1C[C@H](Cl)CN1C(=O)[C@@H](O)[C@H](Cc1ccccc1)NC(=O)O[C@H]1CCCOC1 [(3S)-oxan-3-yl N-[(2S,3S)-4-[(2S,4S)-2-(tert-butylcarbamoyl)-4-chloropyrrolidin-1-yl]-3-hydroxy-4-oxo-1-phenylbutan-2-yl]carbamate] | 14 nM |
| CC(C)(C)NC(=O)[C@@H]1C[C@H](Cl)CN1C(=O)[C@@H](O)[C@H](Cc1ccccc1)NC(=O)O[C@H]1CCOC1 [(3S)-oxolan-3-yl N-[(2S,3S)-4-[(2S,4S)-2-(tert-butylcarbamoyl)-4-chloropyrrolidin-1-yl]-3-hydroxy-4-oxo-1-phenylbutan-2-yl]carbamate] | 5.1 nM |
| COC1O[C@H]2[C@H](OC(=O)N[C@@H](Cc3ccccc3)[C@H](O)C(=O)N3C[C@@H](Cl)C[C@H]3C(=O)NC(C)(C)C)[C@H](OC)OC[C@H]2O1 (stereo partly drawn) [(3aR,6R,7S,7aR)-2,6-dimethoxy-hexahydro-[1,3]dioxolo[4,5-c]pyran-7-yl N-[(2S,3S)-4-[(2S,4S)-2-(tert-butylcarbamoyl)-4-chloropyrrolidin-1-yl]-3-hydroxy-4-oxo-1-phenylbutan-2-yl]carbamate] | > 1000 nM |
| CC(C)(C)NC(=O)[C@@H]1C[C@H](Cl)CN1C(=O)[C@@H](O)[C@H](Cc1ccccc1)NC(=O)OC1CCS(=O)(=O)C1 (stereo partly drawn) [[3(R,S) - (1,1 - Dioxo - tetrahydrothiophenyl)oxy]carbonyl-(2S,3S)-AHPBA-4(S)-Cl-Pro-NH-t-Bu] | 11 nM |
| CC(C)(C)NC(=O)[C@@H]1C[C@H](Cl)CN1C(=O)[C@@H](O)[C@H](Cc1ccccc1)NC(=O)OC1CCOC1 (stereo partly drawn) [[3(R,S)-(Tetrahydrofuranyl)oxy]carbonyl-(2S,3S)-AHPBA-4(S)-Cl-Pro-NH-t-Bu] | 4.9 nM |
| CC(C)(C)NC(=O)[C@@H]1C[C@H](Cl)CN1C(=O)[C@@H](O)[C@H](Cc1ccccc1)NC(=O)O[C@H]1C=CCOC1 [[5(R) - (5,6 - Dihydro - 2H-pyranyl)oxy]carbonyl - (2S,3S)-AHPBA-4(S)-Cl-Pro-NH-t-Bu] | 4.5 nM |
| CO[C@@H]1OCC=C[C@@H]1OC(=O)N[C@@H](Cc1ccccc1)[C@H](O)C(=O)N1C[C@@H](Cl)C[C@H]1C(=O)NC(C)(C)C [[5(S)-[6(R)-Methoxy-5,6-dihydro-2H-pyranyl]oxy]carbonyl-(2S,3S)-AHPBA-4(S)-Cl-Pro-NH-t-Bu] | 29 nM |
| CC(C)(C)NC(=O)[C@@H]1C[C@H](Cl)CN1C(=O)[C@@H](O)[C@H](Cc1ccccc1)NC(=O)c1ccc2ccccc2c1 [beta-Naphthoyl-(2S,3S)-AHPBA-4(S)-Cl-Pro-NH-t-Bu] | 50 nM |
| CC(C)(C)NC(=O)[C@@H]1C[C@H](Cl)CN1C(=O)[C@@H](O)[C@H](Cc1ccccc1)NC(=O)OC1CCCC1 [cyclopentyl N-[(2S,3S)-4-[(2S,4S)-2-(tert-butylcarbamoyl)-4-chloropyrrolidin-1-yl]-3-hydroxy-4-oxo-1-phenylbutan-2-yl]carbamate] | 19 nM |
